Read-outs that look alike come from different tables or passages of the source. Each block holds one compound with its values, some of them ahead of it.
Experiments:
Assay type in all cases: cell-based
[1] = system: H358 cells; assay: cells
Experimental: The cytotoxicity of HGPF, cyclic peptide (CLYDVAGSDKYCGP), FN1-8, and FN1-8 methylamino derivative (FN1-8-CH2-NH2) was detected through CCK8 experiment. The cyclic peptide (CLYDVAGSDKYCGP) has a sequence shown in SEQ ID NO: 4, and it is Cys-Leu-Tyr-Asp-Val-Ala-Gly-Ser-Asp Lys-Tyr-Cys-Gly-Pro. The experimental steps are as follows:
8.1 Plate laying: Inoculate H358 cells in logarithmic growth phase into a 96-well plate (100 μl/well), with 6 replicate wells per group and a cell count of 5×10^3 cells per well, then place and culture in a 37° C., 5% CO2 incubator for 12 hours.
8.2 Use different concentrations of HGPF, HGPF+FAPα, cyclic peptides, FN1-8, and FN1-8-CH2-NH2 to treat with the experimental group. First, prepare the above drugs into a 100 mM mother solution, and then set […], namely 100 μM, 50 μM, 25 μM, 12.5 μM, 6.25 μM, 3.125 μM, 1.5625 μM, and 0.78125 μM, wherein the HGPF+FAPα group was the group added FAPα (1 μM) after adding the above concentrations of HGPF to simulate the tumor tissue microenvironment.
8.3 After 24 hours, wash the cells twice with PBS, then add 100 μL of pre-mixed CCK8 solution (culture medium:CCK8 working solution=9:1) to each well, and then continue to culture in a 37° C., 5% CO2 incubator for 2 hours.
8.4 Use a microplate reader to measure the absorbance D (2) of each well at a wavelength of 450 nm. Analyze the D (2) values of the blank group, the control group, and the experimental group to determine cellular activity. The cell survival rate reflects the cytotoxicity of drugs. The groups are as follows: • Experimental group (culture medium containing cells, CCK-8, test drug) • Control group (culture medium containing cells, CCK-8, without test drug) • Blank group (culture medium without cells and test substance, containing CCK-8)

[2] = system: lung cancer cell line H358 (carrying KRAS G12C mutation); assay: Uptake of HGP-FITC by lung cancer cells, flow cytometry; conditions: different concentrations, 8 hours
Experimental: 6.2 Incubate lung cancer cell line H358 (carrying KRAS G12C mutation) with different concentrations of HGP-FITC, and detect by flow cytometry after 8 hours.

[3] = target: T1, KRAS G12C (Homo sapiens, UniProt P01116, G12C); assay: Specificity of HGP-FITC targeting KRAS G12C (pre-blocking, flow cytometry); conditions: then 25 μM HGP-FITC, 8 hours
T1 construct: endogenous in cells; host or cells: H358 lung cancer cells
Experimental: 6.3 Based on the flow cytometry results, select a concentration of 25 μM for subsequent experiments. The lung cancer cell line H358 (carrying KRAS G12C mutation) was first blocked with 1:1000 KRAS antibody or 10 μM Sotorasib (KRAS G12C inhibitor) for 24 hours, and then incubated with 25 μM HGP-FITC. Fluorescence uptake was detected by flow cytometry after 8 hours.

[4] = system: H358 cells; assay: Scratch test, proliferation and migration of lung cancer cells; conditions: H358, 10 μM, 24 hours
Experimental: The inhibitory effects of the conjugate HGPF and cyclic peptide (CLYDVAGSDKYCGP) on the proliferation and migration of lung cancer cells were detected by scratch test. The experimental steps are as follows:
9.1 Plate laying: First, mark 3 positioning lines at the bottom of the 6-well plate, then inoculate H358 cells in logarithmic growth phase onto the 6-well plate (2 ml/well), with a cell count of 1×10^6 per well, and then culture in a 37° C., 5% CO2 incubator for 24 hours.
9.2 Marking: Place the plate cover above the 6-well plate, use a 100μ pipettor tip to draw 3 straight lines vertically for each hole; then wash 4 times with PBS to wash away floating cell debris.
9.3 Administration: Replace the culture medium with a medium containing 2% serum, administer 10 μM of the drug to each group, take photos at 0 and 24 hours, observe scratch healing, and analyze with ImageJ software.

T1 sequence (P01116 1-188 isoform P01116-2 G12C): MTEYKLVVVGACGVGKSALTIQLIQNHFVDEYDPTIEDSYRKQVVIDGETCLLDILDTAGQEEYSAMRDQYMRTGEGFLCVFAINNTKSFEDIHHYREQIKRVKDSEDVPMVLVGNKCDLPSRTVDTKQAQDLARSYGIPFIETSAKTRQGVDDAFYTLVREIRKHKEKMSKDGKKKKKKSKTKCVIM

Compound: O=C(NCc1ccc(O)cc1)C1C(c2ccccc2)=NN(c2ccccc2)C1c1ccccc1 (stereo not drawn) [FN1-8, reference compound]
cytotoxicity against lung cancer cells [1]: good cytotoxicity | effect of further increasing the concentration on cell viability ([1]; H358, 24 hours, up to 100 μM): cannot achieve the effect of completely inhibiting cell viability | IC50 ([1]; Homo sapiens, NCI-H358, 24 h): 4.34 µM

Compound: CC(C)C[C@@H]1NC(=O)[C@@H](N)CSSC[C@@H](C(=O)NCC(=O)N2CCC[C@H]2C(=O)O)NC(=O)[C@H](Cc2ccc(O)cc2)NC(=O)[C@H](CCCCN)NC(=O)[C@H](CC(=O)O)NC(=O)[C@H](CO)NC(=O)CNC(=O)[C@H](C)NC(=O)[C@H](C(C)C)NC(=O)[C@H](CC(=O)O)NC(=O)[C@H](Cc2ccc(O)cc2)NC1=O [cyclic peptide, Cys-Leu-Tyr-Asp-Val-Ala-Gly-Ser-Asp Lys-Tyr-Cys-Gly-Pro]
cytotoxicity against lung cancer cells [1]: weak cytotoxicity | inhibitory effect on proliferation and migration of tumor cells ([4]; without FAPα): no inhibitory effect

The next lines start with results.

IC50 ([1]; Homo sapiens, NCI-H358, H358, 24 hours, CCK8, read-out: IC50): 4.68 µM
Compound: NCc1ccc(CNC(=O)C2C(c3ccccc3)=NN(c3ccccc3)C2c2ccccc2)cc1 (stereo not drawn) [FN1-8-CH2-NH2]
cytotoxicity against lung cancer cells [1]: good cytotoxicity | inhibition at 100 µM ([1]; Homo sapiens, NCI-H358, 100 μM, 24 hours, read-out: inhibition rate on H358 cells): 100%

uptake of HGP-FITC by H358 cells after pre-block with Sotorasib ([3]; 10 μM Sotorasib 24 hours): significantly reduced | uptake of HGP-FITC by H358 cells after pre-block with KRAS antibody ([3]; 1:1000 KRAS antibody 24 hours): significantly reduced
Compound: CC(C)C[C@@H]1NC(=O)[C@@H](N)CSSC[C@@H](C(=O)NCC(=O)N2CCC[C@H]2C(=O)NCCCCC(NC(=S)Nc2ccc3c(c2)C(=O)OC32c3ccc(O)cc3Oc3cc(O)ccc32)C(=O)O)NC(=O)[C@H](Cc2ccc(O)cc2)NC(=O)[C@H](CCCCN)NC(=O)[C@H](CC(=O)O)NC(=O)[C@H](CO)NC(=O)CNC(=O)[C@H](C)NC(=O)[C@H](C(C)C)NC(=O)[C@H](CC(=O)O)NC(=O)[C@H](Cc2ccc(O)cc2)NC1=O (stereo partly drawn) [HGP-FITC]
uptake of HGP-FITC by H358 cells [2]: concentration dependent manner

IC50 ([1]; 24 h): 3.66 µM
Compound: CC(C)C[C@@H]1NC(=O)[C@@H](N)CSSC[C@@H](C(=O)NCC(=O)N2CCC[C@H]2C(=O)NCc2ccc(CNC(=O)C3C(c4ccccc4)C(c4ccccc4)=NN3c3ccccc3)cc2)NC(=O)[C@H](Cc2ccc(O)cc2)NC(=O)[C@H](CCCCN)NC(=O)[C@H](CC(=O)O)NC(=O)[C@H](CO)NC(=O)CNC(=O)[C@H](C)NC(=O)[C@H](C(C)C)NC(=O)[C@H](CC(=O)O)NC(=O)[C@H](Cc2ccc(O)cc2)NC1=O (stereo partly drawn) [HGPF]
cytotoxicity against lung cancer cells [1]: weak cytotoxicity | inhibitory effect on proliferation and migration of tumor cells ([4]; with FAPα): significantly inhibited | inhibitory effect on proliferation and migration of tumor cells ([4]; without FAPα): no inhibitory effect

From patent publication US20250345311A1, “CONJUGATE OF POLYPEPTIDE AND SMALL MOLECULE TARGETING KRAS AND ANTI-CANCER APPLICATION THEREOF” (Guangzhou Medical University, priority 2024, published 2025)
